The results in this text go back to doi:10.1101/2022.06.13.496020v1 (biorxiv, 2022).

Each structure is given as a SMILES string.

Holding throughout (assay): LANCE cAMP accumulation, transfected CHO-K1 cells
What all share (type): cell-based
(In TR-FRET formats the signal depends on donor and acceptor labels being close together.)

Experiment [1] deals with TSHR (full-length, 21-764) (Homo sapiens, UniProt P16473, V586A).
The target in experiment [2] is TSHR (full-length, 21-764) (Homo sapiens, UniProt P16473, M572A).
Experiment [3] addresses TSHR (full-length, 21-764) (Homo sapiens, UniProt P16473, I640A).
Experiment [4] has as its target TSHR (full-length, 21-764) (Homo sapiens, UniProt P16473).
Experiment [5] has as its target TSHR (full-length, 21-764) (Homo sapiens, UniProt P16473, A644F).

Sequence of TSHR (full-length, 21-764) (Homo sapiens, UniProt P16473, A644F) (P16473 21-764 A644F): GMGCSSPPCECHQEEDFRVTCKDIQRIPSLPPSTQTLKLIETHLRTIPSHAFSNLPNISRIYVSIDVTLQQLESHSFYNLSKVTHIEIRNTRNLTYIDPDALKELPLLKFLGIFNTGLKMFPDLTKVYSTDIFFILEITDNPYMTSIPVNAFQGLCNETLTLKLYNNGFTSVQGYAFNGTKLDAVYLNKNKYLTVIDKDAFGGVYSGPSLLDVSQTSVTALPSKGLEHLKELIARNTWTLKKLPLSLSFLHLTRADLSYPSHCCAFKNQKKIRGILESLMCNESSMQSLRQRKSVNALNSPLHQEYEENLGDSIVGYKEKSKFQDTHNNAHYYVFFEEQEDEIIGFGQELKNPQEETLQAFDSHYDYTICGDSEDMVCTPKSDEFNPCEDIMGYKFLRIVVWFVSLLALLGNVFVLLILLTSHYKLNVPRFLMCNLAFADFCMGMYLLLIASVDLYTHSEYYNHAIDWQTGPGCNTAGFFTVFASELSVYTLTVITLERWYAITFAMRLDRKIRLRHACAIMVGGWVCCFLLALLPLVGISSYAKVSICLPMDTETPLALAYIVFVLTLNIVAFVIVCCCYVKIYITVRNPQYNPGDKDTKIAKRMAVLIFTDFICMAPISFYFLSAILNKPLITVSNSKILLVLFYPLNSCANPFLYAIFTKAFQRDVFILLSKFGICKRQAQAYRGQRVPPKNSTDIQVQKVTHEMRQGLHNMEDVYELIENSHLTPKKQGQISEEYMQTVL
Sequence of TSHR (full-length, 21-764) (Homo sapiens, UniProt P16473, M572A) (P16473 21-764 M572A): as the sequence (P16473 21-764 A644F) above, with M552A, F624A counted along it
Sequence of TSHR (full-length, 21-764) (Homo sapiens, UniProt P16473, I640A) (P16473 21-764 I640A): as the sequence (P16473 21-764 A644F) above, with I620A, F624A counted along it
Sequence of TSHR (full-length, 21-764) (Homo sapiens, UniProt P16473) (P16473 21-764): as the sequence (P16473 21-764 A644F) above, with F624A counted along it
Sequence of TSHR (full-length, 21-764) (Homo sapiens, UniProt P16473, V586A) (P16473 21-764 V586A): as the sequence (P16473 21-764 A644F) above, with V566A, F624A counted along it

As for `COc1ccc([C@H]2Nc3cccc(O)c3C(=O)N2Cc2ccccc2)cc1COc1ccc(NC(C)=O)cc1` [ML-109], the EC50 (usually the concentration that produces a half-maximal response) is 2040 nM in experiment [1]; 2400 nM in experiment [2]; 1150 nM in experiment [3]; 331 nM in experiment [4]; 1780 nM in experiment [5].
